# ChEMBL document CHEMBL2417402, “Development and therapeutic implications of selective histone deacetylase 6 inhibitors” (J Med Chem, 2013)
# Legend:
# [1] = molecular target: T1, Protein deacetylase HDAC6 (Homo sapiens, UniProt Q9UBN7); experiment: Inhibition of HDAC6 (unknown origin)
# T1 sequence (Q9UBN7 whole entry): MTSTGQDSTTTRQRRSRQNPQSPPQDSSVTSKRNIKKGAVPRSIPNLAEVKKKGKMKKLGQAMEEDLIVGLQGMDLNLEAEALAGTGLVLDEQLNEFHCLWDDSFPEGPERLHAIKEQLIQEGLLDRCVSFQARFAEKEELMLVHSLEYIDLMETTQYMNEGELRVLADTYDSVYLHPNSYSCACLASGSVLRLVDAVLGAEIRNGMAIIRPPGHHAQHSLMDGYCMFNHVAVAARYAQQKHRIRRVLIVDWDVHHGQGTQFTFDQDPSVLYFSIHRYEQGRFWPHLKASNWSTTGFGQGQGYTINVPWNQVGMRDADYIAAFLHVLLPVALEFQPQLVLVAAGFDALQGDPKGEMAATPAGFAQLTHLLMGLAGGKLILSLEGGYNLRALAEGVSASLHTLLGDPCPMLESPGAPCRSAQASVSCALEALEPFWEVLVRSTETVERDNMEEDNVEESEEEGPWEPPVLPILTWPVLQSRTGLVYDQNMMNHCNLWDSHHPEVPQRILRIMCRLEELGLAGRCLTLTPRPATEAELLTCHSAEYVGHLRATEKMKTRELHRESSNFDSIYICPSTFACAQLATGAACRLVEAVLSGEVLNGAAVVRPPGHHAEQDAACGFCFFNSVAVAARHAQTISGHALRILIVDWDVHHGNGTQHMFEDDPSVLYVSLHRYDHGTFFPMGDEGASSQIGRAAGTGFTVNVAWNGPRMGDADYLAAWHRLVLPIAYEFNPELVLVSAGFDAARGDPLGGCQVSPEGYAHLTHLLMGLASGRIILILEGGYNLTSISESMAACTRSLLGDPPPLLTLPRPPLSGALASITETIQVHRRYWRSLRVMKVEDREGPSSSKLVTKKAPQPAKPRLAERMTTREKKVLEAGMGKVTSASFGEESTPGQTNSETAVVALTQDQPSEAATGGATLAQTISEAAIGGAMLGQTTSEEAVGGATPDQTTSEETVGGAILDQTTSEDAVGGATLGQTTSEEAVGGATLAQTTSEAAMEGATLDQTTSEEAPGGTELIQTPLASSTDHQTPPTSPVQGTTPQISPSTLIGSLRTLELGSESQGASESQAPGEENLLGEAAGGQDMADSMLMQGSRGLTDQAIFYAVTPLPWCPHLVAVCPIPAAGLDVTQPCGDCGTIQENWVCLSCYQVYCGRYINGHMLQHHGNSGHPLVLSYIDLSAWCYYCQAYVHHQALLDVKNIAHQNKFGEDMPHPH
# Histone deacetylase 1 [2] = molecular target: T2, Histone deacetylase 1 (Homo sapiens, UniProt Q13547); experiment: Inhibition of HDAC1 (unknown origin)
# Histone deacetylase 11 = molecular target: T3, Histone deacetylase 11 (Homo sapiens, UniProt Q96DB2); experiment: Inhibition of HDAC11 (unknown origin)
# T3 sequence (Q96DB2 whole entry): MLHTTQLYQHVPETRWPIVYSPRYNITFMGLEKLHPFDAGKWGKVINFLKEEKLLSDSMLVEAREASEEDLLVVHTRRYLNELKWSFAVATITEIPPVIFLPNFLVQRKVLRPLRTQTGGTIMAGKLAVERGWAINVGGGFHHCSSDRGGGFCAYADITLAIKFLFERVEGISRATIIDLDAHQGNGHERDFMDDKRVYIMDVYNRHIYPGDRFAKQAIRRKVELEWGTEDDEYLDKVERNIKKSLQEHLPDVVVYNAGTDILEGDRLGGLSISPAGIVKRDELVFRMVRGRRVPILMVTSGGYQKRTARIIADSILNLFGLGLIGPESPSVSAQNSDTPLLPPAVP
# Histone deacetylase 8 [3] = molecular target: T4, Histone deacetylase 8 (Homo sapiens, UniProt Q9BY41); experiment: Inhibition of HDAC8 (unknown origin)
# T4 sequence (Q9BY41 whole entry): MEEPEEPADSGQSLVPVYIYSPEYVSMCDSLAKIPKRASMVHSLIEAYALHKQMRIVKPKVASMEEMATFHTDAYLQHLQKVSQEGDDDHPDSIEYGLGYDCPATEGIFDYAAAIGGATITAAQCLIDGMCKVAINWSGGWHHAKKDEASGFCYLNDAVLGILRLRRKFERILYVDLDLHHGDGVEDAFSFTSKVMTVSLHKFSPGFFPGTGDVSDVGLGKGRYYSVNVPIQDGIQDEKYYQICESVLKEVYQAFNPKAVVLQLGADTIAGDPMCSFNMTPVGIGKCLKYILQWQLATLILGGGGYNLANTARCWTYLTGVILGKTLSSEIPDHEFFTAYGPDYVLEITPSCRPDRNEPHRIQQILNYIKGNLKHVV
# Histone deacetylase 5 = Histone deacetylase 5 (Homo sapiens, UniProt Q9UQL6); experiment: Inhibition of HDAC5 (unknown origin)
# Histone deacetylase 3 [4] = molecular target: T5, Histone deacetylase 3 (Homo sapiens, UniProt O15379); experiment: Inhibition of HDAC3 (unknown origin)
# [5] = molecular target: T6, Polyamine deacetylase HDAC10 (Homo sapiens, UniProt Q969S8); experiment: Inhibition of HDAC10 (unknown origin)
# T6 sequence (Q969S8 whole entry): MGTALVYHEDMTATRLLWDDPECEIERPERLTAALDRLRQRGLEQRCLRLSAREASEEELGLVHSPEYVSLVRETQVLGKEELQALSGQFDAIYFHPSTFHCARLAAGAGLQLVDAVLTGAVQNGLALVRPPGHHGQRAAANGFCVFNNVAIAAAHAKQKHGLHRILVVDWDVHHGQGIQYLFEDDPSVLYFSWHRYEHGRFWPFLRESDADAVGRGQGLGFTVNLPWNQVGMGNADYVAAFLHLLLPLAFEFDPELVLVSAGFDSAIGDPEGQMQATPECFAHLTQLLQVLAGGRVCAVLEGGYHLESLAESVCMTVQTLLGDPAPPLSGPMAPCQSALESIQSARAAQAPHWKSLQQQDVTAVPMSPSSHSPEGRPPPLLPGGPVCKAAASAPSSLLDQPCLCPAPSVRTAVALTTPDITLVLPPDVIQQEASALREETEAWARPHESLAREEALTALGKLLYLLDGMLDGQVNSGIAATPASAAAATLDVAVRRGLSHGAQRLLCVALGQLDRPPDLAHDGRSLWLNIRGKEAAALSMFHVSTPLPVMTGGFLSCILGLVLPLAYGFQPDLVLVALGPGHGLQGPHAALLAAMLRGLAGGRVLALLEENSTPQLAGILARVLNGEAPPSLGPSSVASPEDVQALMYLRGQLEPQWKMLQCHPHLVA
# Histone deacetylase 7 = molecular target: T7, Histone deacetylase 7 (Homo sapiens, UniProt Q8WUI4); experiment: Inhibition of HDAC7 (unknown origin)
# T7 sequence (Q8WUI4 whole entry): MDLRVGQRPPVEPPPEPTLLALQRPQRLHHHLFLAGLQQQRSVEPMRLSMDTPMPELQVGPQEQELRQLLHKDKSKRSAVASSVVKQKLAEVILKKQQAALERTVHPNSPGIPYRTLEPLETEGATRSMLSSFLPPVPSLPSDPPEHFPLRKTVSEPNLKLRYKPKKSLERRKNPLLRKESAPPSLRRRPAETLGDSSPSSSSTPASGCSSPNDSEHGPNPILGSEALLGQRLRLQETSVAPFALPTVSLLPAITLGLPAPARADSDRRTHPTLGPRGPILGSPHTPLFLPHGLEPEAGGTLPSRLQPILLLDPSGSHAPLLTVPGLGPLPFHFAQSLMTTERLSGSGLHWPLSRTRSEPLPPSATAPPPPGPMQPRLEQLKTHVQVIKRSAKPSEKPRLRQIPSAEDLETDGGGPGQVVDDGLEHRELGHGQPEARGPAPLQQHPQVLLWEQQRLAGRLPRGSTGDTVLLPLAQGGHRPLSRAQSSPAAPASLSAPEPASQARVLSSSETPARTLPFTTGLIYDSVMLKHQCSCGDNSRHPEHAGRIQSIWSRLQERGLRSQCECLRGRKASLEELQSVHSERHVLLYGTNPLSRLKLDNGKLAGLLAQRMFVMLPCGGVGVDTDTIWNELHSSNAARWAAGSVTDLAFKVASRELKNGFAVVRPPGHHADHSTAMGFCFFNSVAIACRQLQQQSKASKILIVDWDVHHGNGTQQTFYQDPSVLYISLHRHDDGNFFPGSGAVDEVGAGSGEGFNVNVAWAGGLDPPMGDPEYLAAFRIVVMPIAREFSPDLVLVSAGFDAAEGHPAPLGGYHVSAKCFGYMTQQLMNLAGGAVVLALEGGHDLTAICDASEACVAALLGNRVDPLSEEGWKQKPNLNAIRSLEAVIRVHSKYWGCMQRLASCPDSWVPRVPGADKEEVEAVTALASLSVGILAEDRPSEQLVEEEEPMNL
# Histone deacetylase 2 [6] = molecular target: T8, Histone deacetylase 2 (Homo sapiens, UniProt Q92769); experiment: Inhibition of HDAC2 (unknown origin)
# [7] = molecular target: T1, Protein deacetylase HDAC6; experiment: Inhibition of human recombinant HDAC6 using Ac-Leu-Gly-(AMC)Lys-Ac as substrate
# Histone deacetylase 1 [8] = molecular target: T2, Histone deacetylase 1; experiment: Inhibition of human recombinant HDAC1 using Ac-Leu-Gly-(AMC)Lys-Ac as substrate
# [9] = molecular target: T6, Polyamine deacetylase HDAC10; experiment: Inhibition of C-terminal deleted 38 amino acids (632 to 669) HDAC10 (unknown origin) expressed in sf9 cells using carboxyfluorescein (FAM)-labeled acetylated peptide as substrate after 17 hrs by fluorescence-based electrophoretic assay
# Histone deacetylase 1 [10] = molecular target: T2, Histone deacetylase 1; experiment: Inhibition of His-6-tagged full length HDAC1 (unknown origin) expressed in sf9 cells using carboxyfluorescein (FAM)-labeled acetylated peptide as substrate after 17 hrs by fluorescence-based electrophoretic assay
# Histone deacetylase 8 [11] = molecular target: T4, Histone deacetylase 8; experiment: Inhibition of His-6-tagged full length HDAC8 (unknown origin) expressed in sf9 cells using carboxyfluorescein (FAM)-labeled acetylated peptide as substrate after 17 hrs by fluorescence-based electrophoretic assay
# Histone deacetylase 2 [12] = molecular target: T8, Histone deacetylase 2; experiment: Inhibition of His-6-tagged full length HDAC2 (unknown origin) expressed in sf9 cells using carboxyfluorescein (FAM)-labeled acetylated peptide as substrate after 17 hrs by fluorescence-based electrophoretic assay
# [13] = molecular target: T1, Protein deacetylase HDAC6; experiment: Inhibition of His-6-tagged full length HDAC6 (unknown origin) expressed in sf9 cells using carboxyfluorescein (FAM)-labeled acetylated peptide as substrate after 17 hrs by fluorescence-based electrophoretic assay
# Histone deacetylase 4 = Histone deacetylase 4 (Homo sapiens, UniProt P56524); experiment: Inhibition of HDAC4 (unknown origin)
# Histone deacetylase 3 [14] = molecular target: T5, Histone deacetylase 3; experiment: Inhibition of HDAC3 (unknown origin) using carboxyfluorescein (FAM)-labeled acetylated peptide as substrate after 17 hrs by fluorescence-based electrophoretic assay
# Histone deacetylase 2 [15] = molecular target: T8, Histone deacetylase 2; experiment: Inhibition of HDAC2 (unknown origin) using carboxyfluorescein (FAM)-labeled acetylated peptide as substrate after 17 hrs by fluorescence-based electrophoretic assay
# Histone deacetylase 1 [16] = molecular target: T2, Histone deacetylase 1; experiment: Inhibition of HDAC1 (unknown origin) using carboxyfluorescein (FAM)-labeled acetylated peptide as substrate after 17 hrs by fluorescence-based electrophoretic assay
# Histone deacetylase 3 [17] = molecular target: T5, Histone deacetylase 3; experiment: Inhibition of His-6-tagged full length HDAC3 (unknown origin) expressed in sf9 cells and co-expressed in SMRT gene (395 to 489) using carboxyfluorescein (FAM)-labeled acetylated peptide as substrate after 17 hrs by fluorescence-based electrophoretic assay
# T8 sequence (Q92769 whole entry): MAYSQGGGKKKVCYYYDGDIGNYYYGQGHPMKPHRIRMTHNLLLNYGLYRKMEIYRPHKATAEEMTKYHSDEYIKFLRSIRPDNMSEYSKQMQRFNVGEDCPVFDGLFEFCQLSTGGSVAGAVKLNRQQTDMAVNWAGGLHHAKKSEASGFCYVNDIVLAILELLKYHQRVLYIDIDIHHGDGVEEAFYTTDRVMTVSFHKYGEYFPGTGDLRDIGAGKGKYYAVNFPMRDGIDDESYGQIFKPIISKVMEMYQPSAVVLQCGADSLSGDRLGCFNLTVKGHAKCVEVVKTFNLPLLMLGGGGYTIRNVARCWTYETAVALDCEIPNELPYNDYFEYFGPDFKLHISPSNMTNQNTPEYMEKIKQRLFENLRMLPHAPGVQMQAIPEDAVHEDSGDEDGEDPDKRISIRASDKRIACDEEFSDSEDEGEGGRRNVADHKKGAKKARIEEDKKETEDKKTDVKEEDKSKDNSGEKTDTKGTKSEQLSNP
# Histone deacetylase 5, sequence (Q9UQL6 whole entry): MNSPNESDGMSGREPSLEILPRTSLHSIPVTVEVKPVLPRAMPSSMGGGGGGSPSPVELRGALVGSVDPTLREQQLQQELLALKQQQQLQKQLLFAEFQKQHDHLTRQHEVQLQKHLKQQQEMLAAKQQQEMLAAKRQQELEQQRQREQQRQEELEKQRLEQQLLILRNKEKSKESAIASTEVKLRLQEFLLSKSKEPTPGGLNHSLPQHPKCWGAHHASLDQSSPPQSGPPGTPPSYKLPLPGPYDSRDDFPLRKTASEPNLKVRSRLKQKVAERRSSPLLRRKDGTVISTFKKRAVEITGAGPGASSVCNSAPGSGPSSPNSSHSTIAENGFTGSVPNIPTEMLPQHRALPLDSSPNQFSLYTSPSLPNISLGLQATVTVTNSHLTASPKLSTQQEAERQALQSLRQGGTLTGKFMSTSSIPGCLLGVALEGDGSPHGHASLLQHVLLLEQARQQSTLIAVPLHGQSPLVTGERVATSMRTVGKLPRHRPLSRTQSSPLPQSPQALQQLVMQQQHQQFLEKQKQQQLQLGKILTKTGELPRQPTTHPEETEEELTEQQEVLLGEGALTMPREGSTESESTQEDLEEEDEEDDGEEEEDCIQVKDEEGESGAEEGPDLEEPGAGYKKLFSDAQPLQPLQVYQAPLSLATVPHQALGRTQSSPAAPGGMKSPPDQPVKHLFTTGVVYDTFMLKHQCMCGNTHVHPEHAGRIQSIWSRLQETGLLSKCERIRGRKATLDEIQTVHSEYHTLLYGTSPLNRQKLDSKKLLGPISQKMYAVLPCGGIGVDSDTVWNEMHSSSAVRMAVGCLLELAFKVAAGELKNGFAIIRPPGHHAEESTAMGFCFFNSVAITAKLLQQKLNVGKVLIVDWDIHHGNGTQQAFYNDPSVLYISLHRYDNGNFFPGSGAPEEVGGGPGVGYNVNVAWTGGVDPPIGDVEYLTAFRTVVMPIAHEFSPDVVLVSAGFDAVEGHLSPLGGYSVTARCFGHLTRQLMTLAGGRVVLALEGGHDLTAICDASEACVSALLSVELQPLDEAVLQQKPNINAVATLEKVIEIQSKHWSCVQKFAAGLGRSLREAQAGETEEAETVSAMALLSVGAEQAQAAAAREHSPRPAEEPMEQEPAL
# T5 sequence (O15379 whole entry): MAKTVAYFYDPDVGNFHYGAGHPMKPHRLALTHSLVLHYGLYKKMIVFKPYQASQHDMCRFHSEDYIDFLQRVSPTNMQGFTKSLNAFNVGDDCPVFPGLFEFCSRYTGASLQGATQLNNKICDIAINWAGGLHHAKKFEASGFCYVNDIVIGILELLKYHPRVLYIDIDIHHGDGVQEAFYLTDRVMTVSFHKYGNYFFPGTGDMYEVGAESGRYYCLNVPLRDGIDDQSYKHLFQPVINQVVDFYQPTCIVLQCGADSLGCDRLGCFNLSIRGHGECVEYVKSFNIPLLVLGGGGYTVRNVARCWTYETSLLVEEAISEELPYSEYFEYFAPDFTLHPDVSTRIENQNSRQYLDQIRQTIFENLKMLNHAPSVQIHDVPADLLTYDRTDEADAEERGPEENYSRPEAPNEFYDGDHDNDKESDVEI
# T2 sequence (Q13547 whole entry): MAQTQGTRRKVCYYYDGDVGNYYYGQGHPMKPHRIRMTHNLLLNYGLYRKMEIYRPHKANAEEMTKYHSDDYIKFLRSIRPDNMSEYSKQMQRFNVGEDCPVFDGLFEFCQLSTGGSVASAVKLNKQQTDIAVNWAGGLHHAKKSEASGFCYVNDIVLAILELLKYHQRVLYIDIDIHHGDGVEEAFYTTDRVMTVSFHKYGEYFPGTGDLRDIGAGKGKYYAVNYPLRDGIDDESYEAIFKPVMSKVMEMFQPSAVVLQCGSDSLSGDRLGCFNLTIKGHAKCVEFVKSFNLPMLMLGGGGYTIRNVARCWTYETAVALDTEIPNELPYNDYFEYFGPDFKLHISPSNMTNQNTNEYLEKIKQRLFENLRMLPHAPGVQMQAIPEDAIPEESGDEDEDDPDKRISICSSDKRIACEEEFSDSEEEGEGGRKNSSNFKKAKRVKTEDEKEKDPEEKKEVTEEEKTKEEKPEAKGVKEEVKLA
# Histone deacetylase 4, sequence (P56524 whole entry): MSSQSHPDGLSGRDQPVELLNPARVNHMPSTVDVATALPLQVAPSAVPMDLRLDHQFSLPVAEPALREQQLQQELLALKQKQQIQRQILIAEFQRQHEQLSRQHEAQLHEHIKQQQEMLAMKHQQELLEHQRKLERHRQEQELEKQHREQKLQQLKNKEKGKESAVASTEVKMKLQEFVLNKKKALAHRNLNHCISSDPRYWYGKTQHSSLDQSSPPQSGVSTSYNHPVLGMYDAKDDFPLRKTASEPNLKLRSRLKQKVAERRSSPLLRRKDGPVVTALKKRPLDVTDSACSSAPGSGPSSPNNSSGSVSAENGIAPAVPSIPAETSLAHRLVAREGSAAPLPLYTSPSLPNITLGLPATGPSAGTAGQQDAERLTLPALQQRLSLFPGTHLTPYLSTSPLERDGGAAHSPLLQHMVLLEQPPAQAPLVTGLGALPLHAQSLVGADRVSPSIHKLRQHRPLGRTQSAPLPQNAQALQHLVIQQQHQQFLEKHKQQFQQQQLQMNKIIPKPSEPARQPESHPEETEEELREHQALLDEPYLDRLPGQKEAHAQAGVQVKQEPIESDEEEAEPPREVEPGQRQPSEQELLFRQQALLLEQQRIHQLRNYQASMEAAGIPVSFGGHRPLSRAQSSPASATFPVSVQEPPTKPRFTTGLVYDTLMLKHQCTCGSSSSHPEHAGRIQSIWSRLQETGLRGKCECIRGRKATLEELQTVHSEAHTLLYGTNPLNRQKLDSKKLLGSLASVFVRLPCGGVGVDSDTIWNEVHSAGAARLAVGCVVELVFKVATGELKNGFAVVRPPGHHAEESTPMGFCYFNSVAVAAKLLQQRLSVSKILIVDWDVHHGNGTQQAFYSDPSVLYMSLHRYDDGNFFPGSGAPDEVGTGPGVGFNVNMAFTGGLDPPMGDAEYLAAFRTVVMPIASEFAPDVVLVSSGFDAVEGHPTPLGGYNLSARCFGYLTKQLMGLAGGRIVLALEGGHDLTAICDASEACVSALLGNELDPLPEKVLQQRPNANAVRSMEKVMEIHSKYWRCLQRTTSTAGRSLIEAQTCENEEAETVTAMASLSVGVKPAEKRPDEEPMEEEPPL
compound,measurement,setting,value
COC(=O)[C@H](Cc1ccccn1)NC(=O)CCCCCCCC(=O)NO,IC50,[1],4060 nM
same,IC50,Histone deacetylase 1 [2],67.3 µM
O=C(CCCCCNC(=O)NC12CC3CC(CC(C3)C1)C2)NO,IC50,Histone deacetylase 11,190 nM
same,IC50,[1],73 nM
same,IC50,Histone deacetylase 8 [3],6.8 µM
same,IC50,Histone deacetylase 5,310 nM
same,IC50,Histone deacetylase 3 [4],1560 nM
same,IC50,[5],270 nM
same,IC50,Histone deacetylase 7,1290 nM
same,IC50,Histone deacetylase 2 [6],2580 nM
same,IC50,Histone deacetylase 1 [2],0.58 µM
O=C(NC1=CC(=O)c2ccccc2C1=O)c1ccccc1,IC50,[7],5.54 µM
same,IC50,Histone deacetylase 1 [8],> 180 µM
O=C(CCCCCCC(=O)Nc1ccc(-c2ccccc2NC(=O)[C@@H]2CCCN2)cc1)NO,IC50,[9],70 nM
same,IC50,Histone deacetylase 1 [10],52 nM
same,IC50,Histone deacetylase 8 [11],2660 nM
same,IC50,Histone deacetylase 2 [12],193 nM
same,IC50,[13],16 nM
Cc1onc(-c2ccccc2)c1C(=O)NCCCCCNC(=O)CS,IC50,[1],260 nM
same,IC50,Histone deacetylase 5,15000 nM
same,IC50,Histone deacetylase 4,10 µM
same,IC50,Histone deacetylase 2 [6],28000 nM
same,IC50,Histone deacetylase 1 [2],5.7 µM
O=C(CS)NCCCCCC(=O)Nc1cccc2cccnc12,IC50,Histone deacetylase 11,610 nM
same,IC50,[1],21 nM
same,IC50,Histone deacetylase 5,890 nM
same,IC50,Histone deacetylase 3 [4],1320 nM
same,IC50,Histone deacetylase 7,2780 nM
same,IC50,Histone deacetylase 2 [6],1250 nM
CC(C)(C)OC(=O)Nc1ccc(-c2cc(C(=O)NCCCCCCC(=O)NO)no2)cc1,IC50,Histone deacetylase 3 [14],190 nM
same,IC50,Histone deacetylase 2 [15],93 nM
same,IC50,Histone deacetylase 1 [16],12.7 nM
O=C(CCCCCCNC(=O)c1cnc(N(c2ccccc2)c2ccccc2)nc1)NO [RICOLINOSTAT],IC50,[5],> 10000 nM
CCCCOc1ccc(CC(=O)NO)cc1 [BUFEXAMAC],Kd,[1]; read-out: Kd(app),10.7 µM
same,Kd,Histone deacetylase 8 [3]; read-out: Kd(app),235 µM
same,Kd,Histone deacetylase 3 [4]; read-out: Kd(app),341 µM
same,Kd,[5]; read-out: Kd(app),12.3 µM
same,Kd,Histone deacetylase 2 [6]; read-out: Kd(app),> 1 mM
same,Kd,Histone deacetylase 1 [2]; read-out: Kd(app),> 1 mM
CC(C)(C)OC(=O)Nc1cccc(-c2csc(NC(=O)CCCCCCC(=O)NO)n2)c1,IC50,[9],6 nM
same,IC50,Histone deacetylase 1 [10],4 nM
same,IC50,Histone deacetylase 8 [11],2580 nM
same,IC50,Histone deacetylase 2 [12],21 nM
same,IC50,[13],< 0.2 nM
same,IC50,Histone deacetylase 3 [17],2 nM
COC(=O)[C@@H](Cc1ccccn1)NC(=O)CCCCCCCC(=O)NO,IC50,[1],4010 nM
same,IC50,Histone deacetylase 1 [2],82.6 µM
Cc1onc(-c2ccccc2)c1C(=O)NCCCCCNC(=O)[C@@H](C)S,IC50,[1],280 nM
same,IC50,Histone deacetylase 5,> 30000 nM
same,IC50,Histone deacetylase 4,> 30 µM
same,IC50,Histone deacetylase 2 [6],> 30000 nM
same,IC50,Histone deacetylase 1 [2],> 30 µM
